# Test results from patent US8148422B2, “Sulfonamides as TRPM8 modulators” (Janssen Pharmaceutica, NV, priority 2008, dated 2012).
# Target: T1, canine TRPM8 (Canis lupus familiaris, UniProt Q1A7N1)
# T1 construct: expressed in transfected cells
# Assay: In vitro canine TRPM8 functional assay (Ca2+-sensitive fluorescent dye, FLIPR or FDSS, icilin challenge)
# Type: cell-based
# Details: HEK293 cells stably expressing canine TRPM8; for inhibition at 0.2 µM: 0.2 μM compound, icilin challenge; for IC50: icilin at approx. 80% maximal response, eight-point dose-response, single determinations unless otherwise noted, read-out: IC50
# Protocol: The functional activity of compounds of the formula (I) was determined by measuring changes in intracellular calcium concentration using a Ca^2+-sensitive fluorescent dye. The changes in fluorescent signal were monitored by a fluorescence plate reader, either a FLIPR™ (Molecular Devices) or FDSS (Hamamatsu).
# At 24 hrs prior to assay, HEK293 cells stably expressing canine TRPM8 were seeded in culture medium in black wall, clear-base poly-D-lysine coated 384-well plates (BD Biosciences, NJ, USA) and grown overnight in 5% CO2 at 37° C. On assay day, growth media was removed and cells were loaded with Calcium 3 Dye (Molecular Devices) for 35 min at 37° C., under 5% CO2 and then for 25 min at room temperature and atmosphere. Subsequently, cells were tested for agonist-induced increases in intracellular Ca^2+ levels using FLIPR™ or FDSS. Cells were challenged with a compound of the Formula (I) (at varying concentrations) and intracellular Ca^2+ was measured for 5 min prior to the addition of icilin to all wells to achieve a final concentration that produces approximately an 80% maximal response. EC50 or IC50 values for compounds of the present invention were determined from eight-point dose-response studies. Curves were generated using the average of quadruplicate wells for each data point.
# T1 sequence (Q1A7N1 1-1104): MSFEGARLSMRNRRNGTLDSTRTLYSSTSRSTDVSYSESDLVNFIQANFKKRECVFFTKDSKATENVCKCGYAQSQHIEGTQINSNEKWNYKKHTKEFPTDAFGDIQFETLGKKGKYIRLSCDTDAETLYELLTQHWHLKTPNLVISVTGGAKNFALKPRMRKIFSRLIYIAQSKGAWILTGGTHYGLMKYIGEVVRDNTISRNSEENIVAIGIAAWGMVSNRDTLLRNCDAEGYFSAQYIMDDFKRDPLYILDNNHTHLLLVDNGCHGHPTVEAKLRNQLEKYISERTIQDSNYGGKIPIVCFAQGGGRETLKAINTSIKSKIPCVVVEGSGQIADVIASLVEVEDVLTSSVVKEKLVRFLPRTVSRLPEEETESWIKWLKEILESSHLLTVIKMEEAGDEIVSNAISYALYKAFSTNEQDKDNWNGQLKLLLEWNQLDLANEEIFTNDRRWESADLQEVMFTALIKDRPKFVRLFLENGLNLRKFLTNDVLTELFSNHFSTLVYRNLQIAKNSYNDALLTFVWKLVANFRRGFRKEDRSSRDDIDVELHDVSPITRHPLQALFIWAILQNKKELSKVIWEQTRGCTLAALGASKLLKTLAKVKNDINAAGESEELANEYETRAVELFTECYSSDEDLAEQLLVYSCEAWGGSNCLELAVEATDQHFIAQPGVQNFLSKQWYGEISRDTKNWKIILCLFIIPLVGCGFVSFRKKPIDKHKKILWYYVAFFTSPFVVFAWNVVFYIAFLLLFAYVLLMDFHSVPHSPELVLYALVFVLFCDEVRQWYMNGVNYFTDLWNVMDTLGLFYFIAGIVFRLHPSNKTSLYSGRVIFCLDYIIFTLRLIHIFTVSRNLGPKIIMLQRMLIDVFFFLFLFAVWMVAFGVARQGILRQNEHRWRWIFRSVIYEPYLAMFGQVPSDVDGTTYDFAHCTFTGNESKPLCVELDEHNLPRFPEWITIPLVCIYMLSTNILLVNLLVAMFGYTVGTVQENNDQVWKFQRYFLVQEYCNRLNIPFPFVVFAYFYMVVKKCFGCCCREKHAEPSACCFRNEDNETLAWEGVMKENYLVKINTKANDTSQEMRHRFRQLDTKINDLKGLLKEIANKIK
inhibition at 0.2 µM,IC50,SMILES
101%,20 nM,"Cc1c(N(Cc2ccc(OC(F)(F)F)cc2)S(=O)(=O)CCN2CCNC(=O)C2)sc2ccccc12 [Cpd 27, N-(3-Methylbenzo[b]thiophen-2-yl)-N-(4-trifluoromethoxy-benzyl)-2-(3-oxopiperazin-1-yl)ethylsulfonamide]"
25%,–,"Cc1c(N(Cc2ccc(OC(F)(F)F)cc2)S(=O)(=O)CCN2CCN(C)CC2)sc2ccccc12 [Cpd 28, N-(3-Methylbenzo[b]thiophen-2-yl)-N-(4-trifluoromethoxy-benzyl)-2-(4-methylpiperazin-1-yl)ethylsulfonamide]"
101%,12 nM,"CC(=O)N1CCN(CCS(=O)(=O)N(Cc2ccc(OC(F)(F)F)cc2)c2sc3ccccc3c2C)CC1 [Cpd 29, N-(3-Methylbenzo[b]thiophen-2-yl)-N-(4-trifluoromethoxy-benzyl)-2-(4-acetylpiperazin-1-yl)ethylsulfonamide]"
96%,33 nM,"Cc1c(N(Cc2ccc(OC(F)(F)F)cc2)S(=O)(=O)CCN2CCN(c3ccccc3)CC2)sc2ccccc12 [Cpd 30, N-(3-Methylbenzo[b]thiophen-2-yl)-N-(4-trifluoromethoxy-benzyl)-2-(4-phenylpiperazin-1-yl)ethylsulfonamide]"
99%,27 nM,"Cc1c(N(Cc2ccc(OC(F)(F)F)cc2)S(=O)(=O)CCN2CCNC(=O)CC2)sc2ccccc12 [Cpd 31, N-(3-Methylbenzo[b]thiophen-2-yl)-N-(4-trifluoromethoxy-benzyl)-2-(5-oxohomopiperazin-1-yl)ethylsulfonamide]"
99%,12 nM,"Cc1c(N(Cc2ccc(OC(F)(F)F)cc2)S(=O)(=O)CCN2CCOCC2)sc2ccccc12 [Cpd 32, N-(3-Methylbenzo[b]thiophen-2-yl)-N-(4-trifluoromethoxy-benzyl)-2-(morpholin-4-yl)ethylsulfonamide]"
100%,24 nM,"Cc1c(N(Cc2ccc(OC(F)(F)F)cc2)S(=O)(=O)CCN2C[C@@H](C)O[C@@H](C)C2)sc2ccccc12 [Cpd 33, N-(3-Methylbenzo[b]thiophen-2-yl)-N-(4-trifluoromethoxy-benzyl)-2-(cis-2,6-dimethylmorpholin-4-yl)ethylsulfonamide]"
100%,7 nM,"Cc1c(N(Cc2ccc(OC(F)(F)F)cc2)S(=O)(=O)CCN2CCSCC2)sc2ccccc12 [Cpd 34, N-(3-Methylbenzo[b]thiophen-2-yl)-N-(4-trifluoromethoxy-benzyl)-2-(thiomorpholin-4-yl)ethylsulfonamide]"
97%,30 nM,"Cc1c(N(Cc2ccc(OC(F)(F)F)cc2)S(=O)(=O)CCN2CCS(=O)(=O)CC2)sc2ccccc12 [Cpd 35, N-(3-Methylbenzo[b]thiophen-2-yl)-N-(4-trifluoromethoxy-benzyl)-2-(1,1-dioxothiomorpholin-4-yl)ethylsulfonamide]"
94%,56 nM,"Cc1c(N(Cc2ccc(OC(F)(F)F)cc2)S(=O)(=O)CCN2CCCC2)sc2ccccc12 [Cpd 36, N-(3-Methylbenzo[b]thiophen-2-yl)-N-(4-trifluoromethoxy-benzyl)-2-(pyrrolidin-1-yl)ethylsulfonamide]"
100%,20 nM,"Cc1c(N(Cc2ccc(OC(F)(F)F)cc2)S(=O)(=O)CCN2CCCC2C)sc2ccccc12 (centres unmarked) [Cpd 37, N-(3-Methylbenzo[b]thiophen-2-yl)-N-(4-trifluoromethoxy-benzyl)-2-(2-methylpyrrolidin-1-yl)ethylsulfonamide]"
99%,30 nM,"Cc1c(N(Cc2ccc(OC(F)(F)F)cc2)S(=O)(=O)CCN2CCC(O)C2)sc2ccccc12 (centres unmarked) [Cpd 38, N-(3-Methylbenzo[b]thiophen-2-yl)-N-(4-trifluoromethoxy-benzyl)-2-(3-hydroxypyrrolidin-1-yl)ethylsulfonamide]"
80%,113 nM,"Cc1c(N(Cc2ccc(OC(F)(F)F)cc2)S(=O)(=O)CCN2CCC2)sc2ccccc12 [Cpd 39, N-(3-Methylbenzo[b]thiophen-2-yl)-N-(4-trifluoromethoxy-benzyl)-2-(azetidin-1-yl)ethylsulfonamide]"
100%,29 nM,"Cc1c(N(Cc2ccc(OC(F)(F)F)cc2)S(=O)(=O)CCN2CCc3ccccc3C2)sc2ccccc12 [Cpd 40, N-(3-Methylbenzo[b]thiophen-2-yl)-N-(4-trifluoromethoxy-benzyl)-2-(1,2,3,4-tetrahydro-isoquinolin-2-yl)ethylsulfonamide]"
99%,16 nM,"CCOC(=O)C1CCN(CCS(=O)(=O)N(Cc2ccc(OC(F)(F)F)cc2)c2sc3ccccc3c2C)CC1 [Cpd 41, N-(3-Methylbenzo[b]thiophen-2-yl)-N-(4-trifluoromethoxy-benzyl)-2-(4-carboethoxypiperidin-1-yl)ethylsulfonamide]"
98%,17 nM,"Cc1c(N(Cc2ccc(OC(F)(F)F)cc2)S(=O)(=O)CCN2CCC(F)(F)CC2)sc2ccccc12 [Cpd 42, N-(3-Methylbenzo[b]thiophen-2-yl)-N-(4-trifluoromethoxy-benzyl)-2-(4,4-difluoropiperidin-1-yl)ethylsulfonamide]"
101%,5 nM,"Cc1c(N(Cc2ccc(OC(F)(F)F)cc2)S(=O)(=O)CCN2CCCC(F)(F)C2)sc2ccccc12 [Cpd 43, N-(3-Methylbenzo[b]thiophen-2-yl)-N-(4-trifluoromethoxy-benzyl)-2-(3,3-difluoropiperidin-1-yl)ethylsulfonamide]"
99%,45 nM,"Cc1c(N(Cc2ccc(OC(F)(F)F)cc2)S(=O)(=O)CCN2CCC(C(F)(F)F)CC2)sc2ccccc12 [Cpd 44, N-(3-Methylbenzo[b]thiophen-2-yl)-N-(4-trifluoromethoxy-benzyl)-2-(4-trifluoromethylpiperidin-1-yl)ethylsulfonamide]"
99%,9 nM,"Cc1c(N(Cc2ccc(OC(F)(F)F)cc2)S(=O)(=O)CCN2CCC(F)(F)C2)sc2ccccc12 [Cpd 45, N-(3-Methylbenzo[b]thiophen-2-yl)-N-(4-trifluoromethoxy-benzyl)-2-(3,3-difluoropyrrolidin-1-yl)ethylsulfonamide]"
101%,4 nM,"Cc1c(N(Cc2ccc(OC(F)(F)F)cc2)S(=O)(=O)CCN2CC(F)(F)C2)sc2ccccc12 [Cpd 46, N-(3-Methylbenzo[b]thiophen-2-yl)-N-(4-trifluoromethoxy-benzyl)-2-(3,3-ditluoroazetidin-1-yl)ethylsulfonamide]"
83%,51 nM,"CCOC(=O)CNCCS(=O)(=O)N(Cc1ccc(OC(F)(F)F)cc1)c1sc2ccccc2c1C [Cpd 47, N-(3-Methylbenzo[b]thiophen-2-yl)-N-(4-trifluoromethoxy-benzyl)-2-[(carboethoxymethyl)amino]ethylsulfonamide]"
24%,–,"CNCCS(=O)(=O)N(Cc1ccc(OC(F)(F)F)cc1)c1sc2ccccc2c1C [Cpd 48, N-(3-Methylbenzo[b]thiophen-2-yl)-N-(4-trifluoromethoxy-benzyl)-2-(methylamino)ethylsulfonamide]"
65%,–,"Cc1c(N(Cc2ccc(OC(F)(F)F)cc2)S(=O)(=O)CCN(C)C)sc2ccccc12 [Cpd 49, N-(3-Methylbenzo[b]thiophen-2-yl)-N-(4-trifluoromethoxy-benzyl)-2-(dimethylamino)ethylsulfonamide]"
62%,–,"CCCN(CCC)CCS(=O)(=O)N(Cc1ccc(OC(F)(F)F)cc1)c1ccc2ccccc2c1 [Cpd 50, N-(Naphth-2-yl)-N-(4-trifluoromethoxy-benzyl)-2-(di-propylamino)ethylsulfonamide]"
87%,28 nM,"O=S(=O)(CCN1CCOCC1)N(Cc1ccc(OC(F)(F)F)cc1)c1ccc2ccccc2c1 [Cpd 51, N-(Naphth-2-yl)-N-(4-trifluoromethoxy-benzyl)-2-(morpholin-4-yl)ethylsulfonamide]"
87%,42 nM,"O=S(=O)(CCN1CCSCC1)N(Cc1ccc(OC(F)(F)F)cc1)c1ccc2ccccc2c1 [Cpd 52, N-(Naphth-2-yl)-N-(4-trifluoromethoxy-benzyl)-2-(thiomorpholin-4-yl)ethylsulfonamide]"
58%,–,"O=S(=O)(CCN1CCC(c2ccccc2)CC1)N(Cc1ccc(OC(F)(F)F)cc1)c1ccc2ccccc2c1 [Cpd 53, N-(Naphth-2-yl)-N-(4-trifluoromethoxy-benzyl)-2-(4-phenylpiperidin-1-yl)ethylsulfonamide]"
86%,51 nM,"O=S(=O)(CCN1CCc2ccccc2C1)N(Cc1ccc(OC(F)(F)F)cc1)c1ccc2ccccc2c1 [Cpd 54, N-(Naphth-2-yl)-N-(4-trifluoromethoxy-benzyl)-2-(1,2,3,4-tetrahydroisoquinolin-2-yl)ethylsulfonamide]"
84%,109 nM,"O=S(=O)(CCN1CC(F)(F)C1)N(Cc1ccc(OC(F)(F)F)cc1)c1ccc2ccccc2c1 [Cpd 55, N-(Naphth-2-yl)-N-(4-trifluoromethoxy-benzyl)-2-(3,3-difluoroazetidin-1-yl)ethylsulfonamide]"
